According to ChEMBL document CHEMBL1130968, “Synthesis and biological evaluation of 2,2-disubstituted 2-aminoethanols: analogues of FTY720” (1998):

What was measured:
[1] = system: Rattus norvegicus; assay: In vivo immunosuppressive effect of compound was determined on host versus graft reaction (HvGR) using popliteal lymph node gain assay in rat; format: functional; details: read-out: ID50 (the source's name)
[2] = system: Rattus norvegicus; assay: Decrease in number of T cells in peripheral blood after administration for 4 days in rat; format: functional; details: T-cell, 96 h, read-out: ID50 (the source's name)

**Q.** CCCCCCCOc1ccc(CCC(N)(CO)CCC)cc1 (stereo unspecified) was tested. Which ED50 [1] did it give?
**A.** 3.1 mg/kg

**Q.** What about the ED50 [2] of the same compound?
**A.** 7.3 mg/kg

**Q.** How did the ED50 [1] turn out when CCCCCCCOc1ccc(CCC(N)(CO)C(C)C)cc1 (stereo unspecified) was run?
**A.** 2.7 mg/kg

**Q.** And the ED50 [2]?
**A.** 4.5 mg/kg

**Q.** Which ED50 [1] does the source give for CCCCCCCOc1ccc(CC[C@](C)(N)CO)cc1 here?
**A.** > 1 mg/kg

**Q.** What about the ED50 [2] of the same compound?
**A.** > 1 mg/kg

**Q.** Which ED50 [1] does the source give for CCCCCCCOc1ccc(CC[C@@](C)(N)CO)cc1 here?
**A.** 0.088 mg/kg

**Q.** And the ED50 [2]?
**A.** 0.0092 mg/kg

**Q.** How did the ED50 [1] turn out when CCCCCCCOc1ccc(CCC(N)(CC)CO)cc1 (stereo unspecified) was run?
**A.** 0.059 mg/kg

**Q.** And the ED50 [2]?
**A.** 0.044 mg/kg

**Q.** With CCCCCCCOc1ccc(CC[C@](N)(CO)CCC)cc1 as the compound, how does the ED50 [1] read?
**A.** > 10 mg/kg

**Q.** And the ED50 [2]?
**A.** > 10 mg/kg

**Q.** Which ED50 [1] does the source give for CCCCCCCCc1ccc(CCC(N)CO)cc1.Cl (stereo unspecified) here?
**A.** > 10 mg/kg

**Q.** And the ED50 [2]?
**A.** > 10 mg/kg

**Q.** Which ED50 [1] does the source give for CCCCCCCOc1ccc(CCC(N)(CO)CO)cc1 here?
**A.** 0.049 mg/kg

**Q.** And the ED50 [2]?
**A.** 0.014 mg/kg

**Q.** What does the source list for CCCCCCCOc1ccc(CCC(N)(CO)CCCC)cc1 (stereo unspecified)?
**A.** ED50 [1]: > 10 mg/kg; ED50 [2]: > 10 mg/kg

**Q.** Which results are given for CCCCCCCOc1ccc(CC[C@@](N)(CO)CCC)cc1?
**A.** ED50 [1]: 0.63 mg/kg; ED50 [2]: 4.4 mg/kg

**Q.** How did the ED50 [1] turn out when CCCCCCCOc1ccc(CCC(C)(N)CO)cc1 (stereo unspecified) was run?
**A.** 0.031 mg/kg

**Q.** What about the ED50 [2] of the same compound?
**A.** 0.061 mg/kg

**Q.** What does the source list for C/C=C/C[C@@H](C)[C@@H](O)[C@H]1C(=O)N[C@@H](CC)C(=O)N(C)CC(=O)N(C)[C@@H](CC(C)C)C(=O)N[C@@H](C(C)C)C(=O)N(C)[C@@H](CC(C)C)C(=O)N[C@@H](C)C(=O)N[C@H](C)C(=O)N(C)[C@@H](CC(C)C)C(=O)N(C)[C@@H](CC(C)C)C(=O)N(C)[C@@H](C(C)C)C(=O)N1C [CYCLOSPORINE]?
**A.** ED50 [1]: 2.8 mg/kg; ED50 [2]: > 30 mg/kg

**Q.** CCCCCCCCc1ccc(CCC(N)(CO)CO)cc1.Cl [FINGOLIMOD HYDROCHLORIDE] was tested. Which ED50 [1] did it give?
**A.** 0.2 mg/kg

**Q.** What about the ED50 [2] of the same compound?
**A.** 0.024 mg/kg
